In ChEMBL document CHEMBL1201862, “PubChem BioAssay data set” (2004):
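Interpolation was linear, between the two tested concentrations surrounding the appropriate level; five concentrations were tested over 48 hours in 96-well plates. GI50 marks 50% less growth.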 The source made the active and inactive calls. No stated cut-off is given here; in the data, active = GI50 up to about 1.1 µM and inactive = higher.

Key:
Assay in all cases: NCI tumour cell line growth inhibition, 48 h
OVCAR-8 = tested on: OVCAR-8
A498 = tested on: A498
NCI-H460 = tested on: NCI-H460
HT-29 = tested on: HT-29
K562 = tested on: K562
DMS-114 = tested on: DMS-114
786-0 = tested on: 786-0
EKVX = tested on: EKVX
SK-OV-3 = tested on: SK-OV-3
NCI-H522 = tested on: NCI-H522
SNB-78 = tested on: SNB-78
HCT-116 = tested on: HCT-116
SK-MEL-2 = tested on: SK-MEL-2
HOP-62 = tested on: HOP-62
SF-295 = tested on: SF-295
OVCAR-3 = tested on: OVCAR-3
ACHN = tested on: ACHN
CCRF-CEM = tested on: CCRF-CEM
MOLT-4 = tested on: MOLT-4
SK-MEL-28 = tested on: SK-MEL-28
HL-60 = tested on: HL-60
HCT-15 = tested on: HCT-15
IGROV-1 = tested on: IGROV-1
A549 = tested on: A549
SN12C = tested on: SN12C
SF-268 = tested on: SF-268
M19-MEL = tested on: M19-MEL
SK-MEL-5 = tested on: SK-MEL-5
UO-31 = tested on: UO-31
KM12 = tested on: KM12
DLD-1 = tested on: DLD-1
OVCAR-4 = tested on: OVCAR-4
UACC-257 = tested on: UACC-257
U-251 = tested on: U-251
COLO 205 = tested on: COLO 205
SR = tested on: SR
SF-539 = tested on: SF-539
UACC-62 = tested on: UACC-62
HCC 2998 = tested on: HCC 2998
HOP-92 = tested on: HOP-92
Malme-3M = tested on: Malme-3M
SNB-19 = tested on: SNB-19
NCI-H23 = tested on: NCI-H23
LOX IMVI = tested on: LOX IMVI
OVCAR-5 = tested on: OVCAR-5
SNB-75 = tested on: SNB-75
M14 = tested on: M14
LXFL 529 = tested on: LXFL 529
KM-20L2 = tested on: KM-20L2
CAKI-1 = tested on: CAKI-1
TK-10 = tested on: TK-10
HOP-18 = tested on: HOP-18
DMS-273 = tested on: DMS-273
SW-620 = tested on: SW-620
RPMI-8226 = tested on: RPMI-8226
RXF 393 = tested on: RXF 393
Hs-578T = tested on: Hs-578T
PC-3 = tested on: PC-3
NCI/ADR-RES = tested on: NCI/ADR-RES
MCF7 = tested on: MCF7
BT-549 = tested on: BT-549

[N-]=[N+]=NC1(c2ccccc2)C(=O)C(Cl)=C(c2ccccc2)N(c2ccccc2)C1=O (stereo unspecified)
GI50 (OVCAR-8): > 100 µM (inactive)
GI50 (A498): > 100 µM (inactive)
GI50 (NCI-H460): > 100 µM (inactive)
GI50 (HT-29): > 100 µM (inactive)
GI50 (K562): 46.8 µM (inactive)
GI50 (DMS-114): 46.2 µM (inactive)
GI50 (786-0): > 100 µM (inactive)
GI50 (EKVX): > 100 µM (inactive)
GI50 (SK-OV-3): 31.3 µM (inactive)
GI50 (NCI-H522): 41.2 µM (inactive)
GI50 (SNB-78): 31.4 µM (inactive)
GI50 (HCT-116): > 100 µM (inactive)
GI50 (SK-MEL-2): > 100 µM (inactive)
GI50 (HOP-62): > 100 µM (inactive)
GI50 (SF-295): > 100 µM (inactive)
GI50 (OVCAR-3): 65.3 µM (inactive)
GI50 (ACHN): > 100 µM (inactive)
GI50 (CCRF-CEM): 59.7 µM (inactive)
GI50 (MOLT-4): 58.5 µM (inactive)
GI50 (SK-MEL-28): > 100 µM (inactive)
GI50 (HL-60): 43.1 µM (inactive)
GI50 (HCT-15): > 100 µM
GI50 (IGROV-1): > 100 µM (inactive)
GI50 (A549): > 100 µM (inactive)
GI50 (SN12C): > 100 µM (inactive)
GI50 (SF-268): > 100 µM (inactive)
GI50 (M19-MEL): > 100 µM (inactive)
GI50 (SK-MEL-5): > 100 µM (inactive)
GI50 (UO-31): 97.3 µM (inactive)
GI50 (KM12): > 100 µM (inactive)
GI50 (DLD-1): > 100 µM (inactive)
GI50 (OVCAR-4): > 100 µM (inactive)
GI50 (UACC-257): > 100 µM (inactive)
GI50 (U-251): > 100 µM (inactive)
GI50 (COLO 205): > 100 µM (inactive)
GI50 (SR): 65.5 µM (inactive)
GI50 (SF-539): > 100 µM (inactive)
GI50 (UACC-62): > 100 µM (inactive)
GI50 (HCC 2998): > 100 µM (inactive)
GI50 (HOP-92): > 100 µM (inactive)
GI50 (Malme-3M): > 100 µM (inactive)
GI50 (SNB-19): > 100 µM (inactive)
GI50 (NCI-H23): 64.9 µM (inactive)
GI50 (LOX IMVI): > 100 µM (inactive)
GI50 (OVCAR-5): > 100 µM (inactive)
GI50 (SNB-75): > 100 µM (inactive)
GI50 (M14): > 100 µM (inactive)
GI50 (LXFL 529): 91.6 µM (inactive)
GI50 (KM-20L2): > 100 µM (inactive)
GI50 (CAKI-1): > 100 µM (inactive)
GI50 (TK-10): > 100 µM (inactive)
GI50 (HOP-18): > 100 µM (inactive)
GI50 (DMS-273): > 100 µM (inactive)
GI50 (SW-620): > 100 µM (inactive)

O=C(O)CC/C(=N\Nc1nsc2ccccc12)c1ccccc1
GI50 (OVCAR-8): 66.7 µM (inactive)
GI50 (NCI-H460): 33.6 µM (inactive)
GI50 (HT-29): 34.4 µM (inactive)
GI50 (RPMI-8226): 18.5 µM (inactive)
GI50 (K562): 26.8 µM (inactive)
GI50 (DMS-114): 25.5 µM (inactive)
GI50 (EKVX): > 100 µM (inactive)
GI50 (SNB-78): 47.8 µM (inactive)
GI50 (HCT-116): 41.6 µM (inactive)
GI50 (SK-MEL-2): > 100 µM (inactive)
GI50 (HOP-62): 97.5 µM (inactive)
GI50 (OVCAR-3): 26.5 µM (inactive)
GI50 (ACHN): 70.6 µM (inactive)
GI50 (CCRF-CEM): 26.6 µM (inactive)
GI50 (MOLT-4): 23.4 µM (inactive)
GI50 (SK-MEL-28): 34.6 µM (inactive)
GI50 (HL-60): 25.4 µM (inactive)
GI50 (HCT-15): 36 µM
GI50 (IGROV-1): > 100 µM (inactive)
GI50 (A549): > 100 µM (inactive)
GI50 (SN12C): 38.1 µM (inactive)
GI50 (SF-268): 39.4 µM (inactive)
GI50 (M19-MEL): 72.3 µM (inactive)
GI50 (SK-MEL-5): 79.6 µM (inactive)
GI50 (UO-31): > 100 µM (inactive)
GI50 (KM12): > 100 µM (inactive)
GI50 (OVCAR-4): 58.5 µM (inactive)
GI50 (UACC-257): 57.3 µM (inactive)
GI50 (U-251): 39.1 µM (inactive)
GI50 (COLO 205): > 100 µM (inactive)
GI50 (SR): 24.9 µM (inactive)
GI50 (SF-539): > 100 µM (inactive)
GI50 (UACC-62): 58.5 µM (inactive)
GI50 (HCC 2998): 30.5 µM (inactive)
GI50 (HOP-92): 51.3 µM (inactive)
GI50 (SNB-19): > 100 µM (inactive)
GI50 (NCI-H23): 27.2 µM (inactive)
GI50 (LOX IMVI): 29.5 µM (inactive)
GI50 (OVCAR-5): > 100 µM (inactive)
GI50 (SNB-75): 0.82 µM (active)
GI50 (M14): 54.5 µM (inactive)
GI50 (LXFL 529): 42.5 µM (inactive)
GI50 (KM-20L2): 78.7 µM (inactive)
GI50 (RXF 393): 39.1 µM (inactive)
GI50 (TK-10): > 100 µM (inactive)
GI50 (HOP-18): > 100 µM (inactive)
GI50 (DMS-273): 24.7 µM (inactive)
GI50 (SW-620): 52.4 µM (inactive)

COc1cc(CNc2ccc(SC)cc2)cc(OC)c1OC
GI50 (A498): 22 µM (inactive)
GI50 (NCI-H460): 7.1 µM (inactive)
GI50 (HT-29): 4.39 µM (inactive)
GI50 (RPMI-8226): 11.9 µM (inactive)
GI50 (DMS-114): 5.15 µM (inactive)
GI50 (786-0): 14.6 µM (inactive)
GI50 (EKVX): 49.7 µM (inactive)
GI50 (NCI-H522): 4.92 µM (inactive)
GI50 (SNB-78): 48.3 µM (inactive)
GI50 (HCT-116): 6.93 µM (inactive)
GI50 (SK-MEL-2): 4.88 µM (inactive)
GI50 (OVCAR-3): 7.26 µM (inactive)
GI50 (CCRF-CEM): 12.2 µM (inactive)
GI50 (MOLT-4): 4.85 µM (inactive)
GI50 (HL-60): 4.84 µM (inactive)
GI50 (HCT-15): 4.08 µM
GI50 (A549): 10 µM (inactive)
GI50 (Hs-578T): 12.4 µM (inactive)
GI50 (UO-31): 20 µM (inactive)
GI50 (PC-3): 12.4 µM (inactive)
GI50 (OVCAR-4): 46.9 µM (inactive)
GI50 (COLO 205): 4.48 µM (inactive)
GI50 (NCI/ADR-RES): 3.78 µM (inactive)
GI50 (Malme-3M): 11 µM (inactive)
GI50 (LOX IMVI): 9.42 µM (inactive)
GI50 (OVCAR-5): 32.1 µM (inactive)
GI50 (M14): 4.38 µM (inactive)
GI50 (MCF7): 5.69 µM (inactive)
GI50 (LXFL 529): 18.4 µM (inactive)
GI50 (KM-20L2): 4.3 µM (inactive)
GI50 (BT-549): 3.18 µM (inactive)
GI50 (HOP-18): 33.5 µM (inactive)
GI50 (DMS-273): 3.08 µM (inactive)
GI50 (SW-620): 4.02 µM (inactive)
